Reference: patent US7598377B2, “Inhibition of phosphoinositide 3-kinase β” (AstraZeneca AB, priority 2002, dated 2009)

Legend:
Format in all cases: biochemical
P110 γ = biological target: T1, P110 γ (Homo sapiens, UniProt P48736); assay: Isoform selective in vitro PI3K enzyme assay (Example 13), γ recombinant; conditions: read-out: P110 γ IC50s
T1 construct: made in house
Method: (§1) In vitro enzyme assays were conducted as a primary screen to determine drug candidate isoform affinity and specificity. The α and β isoforms of the PI3K were immunoprecipitated from a platelet lysate, using an antibodies obtained from Santa Cruz Biotechnology, that recognized specific regions of p110α (sc-7174) and β (sc-603) isoforms. The γ isoform was produced as a recombinant protein in the Kinacia laboratories. […] Standard phosphorylation assays using phosphatidylinositol and ^32P were used to measure the enzyme activity in the immunoprecipates in the presence or absence of an inhibitor. Enzyme activity was determined over a range of inhibitor concentrations to establish an IC50 value.

P110 δ = biological target: T2, P110 δ (Homo sapiens, UniProt O00329); assay: Isoform selective in vitro PI3K enzyme assay (Example 13), δ from THP-1 cells; conditions: read-out: P110 δ IC50s
T2 construct: The δ isoform was immunoprecipitated from THP-1 cells; endogenous in cells; host or cells: THP-1 cells (immunoprecipitated with antibody sc-7176)
T2 sequence (O00329 whole entry, canonical isoform): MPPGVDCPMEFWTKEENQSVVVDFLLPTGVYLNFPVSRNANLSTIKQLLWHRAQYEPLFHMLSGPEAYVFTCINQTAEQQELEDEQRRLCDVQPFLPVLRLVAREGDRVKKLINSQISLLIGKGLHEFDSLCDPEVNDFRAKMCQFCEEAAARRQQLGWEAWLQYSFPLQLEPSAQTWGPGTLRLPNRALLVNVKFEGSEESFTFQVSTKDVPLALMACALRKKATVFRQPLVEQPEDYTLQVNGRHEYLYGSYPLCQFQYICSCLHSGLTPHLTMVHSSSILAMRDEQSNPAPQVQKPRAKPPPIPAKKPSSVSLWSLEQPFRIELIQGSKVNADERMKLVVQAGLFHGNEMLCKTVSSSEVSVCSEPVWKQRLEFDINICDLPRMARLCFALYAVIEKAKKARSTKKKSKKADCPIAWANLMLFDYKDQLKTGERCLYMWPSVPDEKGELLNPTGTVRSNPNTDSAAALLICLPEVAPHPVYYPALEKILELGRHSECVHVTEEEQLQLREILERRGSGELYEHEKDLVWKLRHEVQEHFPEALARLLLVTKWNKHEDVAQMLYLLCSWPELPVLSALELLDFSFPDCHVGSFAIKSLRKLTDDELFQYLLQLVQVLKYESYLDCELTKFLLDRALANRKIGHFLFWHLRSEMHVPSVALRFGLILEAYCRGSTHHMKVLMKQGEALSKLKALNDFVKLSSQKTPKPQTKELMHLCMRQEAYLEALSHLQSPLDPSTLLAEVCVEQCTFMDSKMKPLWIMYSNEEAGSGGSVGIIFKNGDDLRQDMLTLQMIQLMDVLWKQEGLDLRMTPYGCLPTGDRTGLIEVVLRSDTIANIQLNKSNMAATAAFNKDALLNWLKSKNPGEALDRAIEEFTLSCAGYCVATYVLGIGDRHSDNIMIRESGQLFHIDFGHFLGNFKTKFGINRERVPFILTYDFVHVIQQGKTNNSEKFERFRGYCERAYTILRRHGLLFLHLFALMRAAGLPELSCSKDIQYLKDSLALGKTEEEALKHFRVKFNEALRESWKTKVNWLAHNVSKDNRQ
T2 sequence (P27986 whole entry partner, canonical isoform): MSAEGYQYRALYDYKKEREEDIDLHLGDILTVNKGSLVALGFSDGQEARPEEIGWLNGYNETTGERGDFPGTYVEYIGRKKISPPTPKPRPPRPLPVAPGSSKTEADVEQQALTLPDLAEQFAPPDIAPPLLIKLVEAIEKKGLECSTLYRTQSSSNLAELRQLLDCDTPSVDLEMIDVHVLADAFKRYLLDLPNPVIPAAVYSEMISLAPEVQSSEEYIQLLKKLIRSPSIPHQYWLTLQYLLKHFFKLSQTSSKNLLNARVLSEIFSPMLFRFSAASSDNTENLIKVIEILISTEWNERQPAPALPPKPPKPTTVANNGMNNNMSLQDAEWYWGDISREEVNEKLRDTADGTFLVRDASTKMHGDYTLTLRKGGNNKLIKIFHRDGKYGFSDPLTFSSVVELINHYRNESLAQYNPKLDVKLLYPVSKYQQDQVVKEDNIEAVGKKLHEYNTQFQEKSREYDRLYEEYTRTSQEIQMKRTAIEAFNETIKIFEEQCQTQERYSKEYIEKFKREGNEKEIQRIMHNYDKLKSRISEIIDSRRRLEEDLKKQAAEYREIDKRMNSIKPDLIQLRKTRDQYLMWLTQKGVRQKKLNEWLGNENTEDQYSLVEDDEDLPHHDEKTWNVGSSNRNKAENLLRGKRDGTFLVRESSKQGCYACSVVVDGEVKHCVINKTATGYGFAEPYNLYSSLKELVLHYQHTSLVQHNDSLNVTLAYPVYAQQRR
Method: as §1, with “The α and β isoforms of the PI3K were immunoprecipitated from a platelet lysate, using an antibodies obtained from Santa Cruz Biotechnology, that recognized specific regions of p110α (sc-7174) and β (sc-603) isoforms.” left out

[1] = system: PI 3-kinase immunoprecipitated from human platelets (p85/110 form); assay: In vitro PI 3-kinase assay (Example 8), Platelet IP (p85); conditions: read-out: Platelet IP (p85) IC50s
Method: The effect of pyridine-substituted compounds on PI 3-kinase activity was determined using an in vitro PI 3-kinase assay. This assay was performed using PI 3-kinase immunoprecipitated from human platelets as the enzyme and PI as the substrate. The PI 3-kinase activity was quantitated by measuring the enzymatic incorporation of [^32P] into PI, forming PI([^32P]-3)P, as previously described (Susa et al., 1992, The Journal of Biological Chemistry 267(32):22951-22956.
Washed human platelets were lysed in Triton X-100 lysis buffer (10 mM Tris, pH 7.4, 1% Triton X-100, 2 mM EDTA, 1 mM PMSF) for 30 minutes. The Triton X-100 insoluble fraction was removed by centrifugation of the cell lysates at 15,000 g for 10 minutes. PI 3-kinase was immunoprecipitated by mixing 500 μg of the cell lysate with 1 μg of a rabbit anti-rat antibody against the p85/110 form of PI 3-kinase and 30 μl of 50% Protein A-sepharose beads for 2 hours at 4° C. The Protein A-sepharose-bound PI 3-kinase was isolated by pelleting the beads at 15,000 g for 5 seconds, and washing three times with ice-cold Triton X-100 lysis buffer followed by four washes with PI 3-kinase assay buffer (20 mM HEPES, pH 7.4, 1 mM EGTA, 5 mM MgCl2).
PI stored in CHCl3 was dried under N2, resuspended in the lipid buffer (50 mM HEPES, pH 7.2, 1 mM EDTA) at a final concentration of 330 μg/ml, and sonicated for 6 minutes on ice. PI([^32P]-3)P was generated by mixing the immunoprecipitated PI 3-kinase for 20 minutes with 40 μl of the PI, 10 μl of ATP (1 mM) and ^32P-r-ATP (0.5 μCi, 1 μCi/nmol), 10 μl of 10× kinase buffer, in a final assay volume of 100 μl adjusted with H2O. TGX-was preincubated with the PI 3-kinase for 5 minutes prior to the addition of ATP. The assay was terminated with 100 μl of 1 N HCl, and the PI([^32P]-3)P product extracted with 200 μl chloroform:methanol (1:1) and 500 μl 2 M KCl. The PI([^32P]-3)P in the chloroform phase was resolved by thin layer chromatography using a solvent system containing CHCl3:MeOH:HAC:H2O (43:38:5:7) (v:v:v:v), and visualized by autoradiography. The PI([^32P]-3)P spots were then scraped off from the TLC plates, deacylated with 1 ml methylamine:butanol:methanol (42:9:47) (v:v:v) for 4 hours at 53° C., and quantitated using a liquid scintillation counter (LKB 1209 RackBETA).

T1 sequence (P48736 whole entry, species assumed, canonical isoform): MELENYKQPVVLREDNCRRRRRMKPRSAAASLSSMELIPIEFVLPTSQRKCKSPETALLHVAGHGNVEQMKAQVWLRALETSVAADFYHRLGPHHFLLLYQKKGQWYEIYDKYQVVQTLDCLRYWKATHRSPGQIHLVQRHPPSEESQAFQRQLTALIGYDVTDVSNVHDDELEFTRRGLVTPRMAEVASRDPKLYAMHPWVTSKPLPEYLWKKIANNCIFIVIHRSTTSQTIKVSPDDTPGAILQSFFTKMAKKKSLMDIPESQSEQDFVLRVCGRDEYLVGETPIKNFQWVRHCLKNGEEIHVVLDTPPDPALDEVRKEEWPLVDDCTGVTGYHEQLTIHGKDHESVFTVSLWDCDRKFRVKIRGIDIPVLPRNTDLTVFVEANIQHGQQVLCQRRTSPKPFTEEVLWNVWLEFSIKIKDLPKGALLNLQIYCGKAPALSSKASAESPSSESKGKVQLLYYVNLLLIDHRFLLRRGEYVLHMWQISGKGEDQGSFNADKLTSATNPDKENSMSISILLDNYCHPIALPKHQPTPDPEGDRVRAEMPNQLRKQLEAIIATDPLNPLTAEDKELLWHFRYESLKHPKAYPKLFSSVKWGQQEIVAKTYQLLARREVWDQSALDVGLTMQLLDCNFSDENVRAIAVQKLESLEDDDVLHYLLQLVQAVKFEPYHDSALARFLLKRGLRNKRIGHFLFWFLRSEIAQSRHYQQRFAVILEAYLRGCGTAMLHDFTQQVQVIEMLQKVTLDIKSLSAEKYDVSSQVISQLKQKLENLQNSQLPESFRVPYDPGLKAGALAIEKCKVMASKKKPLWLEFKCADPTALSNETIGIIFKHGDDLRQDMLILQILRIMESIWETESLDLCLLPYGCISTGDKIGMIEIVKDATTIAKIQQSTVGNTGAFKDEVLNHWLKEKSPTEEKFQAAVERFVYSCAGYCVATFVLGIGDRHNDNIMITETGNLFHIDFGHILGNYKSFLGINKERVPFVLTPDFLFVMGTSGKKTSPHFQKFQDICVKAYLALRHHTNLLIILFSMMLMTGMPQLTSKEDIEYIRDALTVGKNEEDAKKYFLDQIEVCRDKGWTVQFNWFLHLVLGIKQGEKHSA

| Compound | IC50 (P110 γ) [nM] | IC50 (P110 δ) [nM] | IC50 [1] [nM] |
| --- | --- | --- | --- |
| O=c1cc(-c2ccncc2)nc2c(Cc3ccccc3)cccn12 [KN349, 9-Benzyl-2-(4-pyridinyl)-4H-Pyrido[1,2-a]pyrimidin-4-one] | > 10000 | 2000 | 500 |
| COc1cccc2c(=O)cc(-c3ccncc3)[nH]c12 [KN344, 8-methoxy-2-(4-pyridinyl)-4(1H)-quinolinone] | > 10000 |  | 5000 |
| O=c1cc(-c2ccncc2)oc2c(Nc3cccc(F)c3)cccc12 [KN351, 8-(3-Fluorophenylamino)-2-(4-pyridinyl)-4H-benzopyran-1-one] |  |  | 500 |
| O=c1cc(-c2ccncc2)[nH]c2c(Cc3ccccc3)cccc12 [KN346, 8-Benzyl-2-(4-pyridinyl)-4(1H)-quinolinone] | > 10000 | 10000 | > 10000 |
| 8-Naphthyl-2-(4-pyridinyl)-4(1H)-quinolinone [KN350] |  |  | 500 |
| O=c1cc(-c2ccncc2)oc2cc(OCc3ccccc3)ccc12 [KN342, 7-Benzyloxy-2-(4-pyridinyl)-4H-benzopyran-1-one] | > 10000 | > 10000 |  |
| 6-methyl-8-(2-acetamido)phenylaminomethyl-2-(4-pyridinyl)-4H-benzopyran-1-one [KN326] | 5000 | 1000 | 500 |
| O=c1cc(-c2ccncc2)[nH]c2c(Oc3ccccc3)cccc12 [KN319, 8-phenoxy-2-(4-pyridinyl)-4-(1H)-quinolinone] | 20000 | 300 | 500 |
| Cc1cc(-c2ccccc2)c2oc(-c3ccncc3)cc(=O)c2c1 [TGX258, 8-Phenyl-6-methyl-2-(4-pyridinyl)-4H-benzopyran-1-one] | > 20000 | > 10000 |  |
| Cc1cc(F)ccc1Oc1cccc2c(=O)cc(-c3ccncc3)[nH]c12 [KN337, 8-(4-Fluoro-2-methylphenoxy)-2-(4-pyridinyl)-4(1H)-quinolinone] | > 10000 | 200 | 200 |
| Cc1cc(C(C)Oc2ccccc2)c2oc(-c3ccncc3)cc(=O)c2c1 (stereo not drawn) [KN317, 6-methyl-8-1-(phenoxy)ethyl-2-(4-pyridinyl)-4H-benzopyran-1-one] |  | 5000 | > 100 |
| O=c1cc(-c2ccncc2)oc2c(NCc3ccccc3)cccc12 [KN336] | 10000 | 200 | 1000 |
| Cc1cc(C(C)Nc2cccc(C)n2)c2oc(-c3ccncc3)cc(=O)c2c1 (stereo not drawn) [KN310, 8-1-(6-methylpyridin-2-ylamino)ethyl-6-methyl-2-(4-pyridinyl)-4H-1-benzopyran-4-one] | 7500 | 1000 | 100 |
| Cc1cc(CNc2ccccn2)c2oc(-c3ccncc3)cc(=O)c2c1 [KN315, 6-methyl-8-(2-pyridinyl)aminomethyl-2-(4-pyridinyl)-4H-benzopyran-1-one] | 5000 | 5000 | > 100 |
| Cc1cc(C(C)Nc2ccc(F)cc2C)c2oc(-c3ccncc3)cc(=O)c2c1 (stereo not drawn) [KN303, 8-1-(4-fluoro-2-methylphenylamino)ethyl-6-methyl-2-(4-pyridinyl)-4H-1-benzopyran-4-one] | 1500 | 500 | 10 |
| Cc1cc(COc2ccccc2)c2oc(-c3ccncc3)cc(=O)c2c1 [KN313, 6-methyl-8-phenoxymethyl-2-(4-pyridinyl)-4H-benzopyran-1-one] |  | 5000 | 100 |
| O=c1cc(-c2ccncc2)[nH]c2c(-c3ccccc3)cccc12 [KN345, 8-phenyl-2-(4-pyridinyl)-4(1H)-quinoline] | > 10000 |  | 5000 |
| Cc1cccn2c(=O)cc(-c3ccncc3)nc12 [KN347, 9-methyl-2-(4-pyridinyl)-4H-Pyrido[1,2-a]pyrimidin-4-one] | > 10000 | > 10000 | > 10000 |
| O=c1cc(-c2ccncc2)oc2c(OCc3ccccc3)cccc12 [KN335, 8-Benzyloxy-2-(4-pyridinyl)-4H-benzopyran-1-one] |  | 1000 | 1000 |
| Cc1cc(C(C)Nc2cccc(C(F)(F)F)c2)c2oc(-c3ccncc3)cc(=O)c2c1 (stereo not drawn) [KN322, 8-1-(3-trifluoromethylphenylamino)ethyl-6-methyl-2-(4-pyridinyl)-4H-1-benzopyran-4-one] |  | 1000 | 1000 |
| Cc1cc(C(C)n2c(C(F)(F)F)nc3ccccc32)c2oc(-c3ccncc3)cc(=O)c2c1 (stereo not drawn) [KN328, 6-methyl-8-1-(2-trifluoromethyl-benzimidazol-1-yl)-ethyl-2-(4-pyridinyl)-4H-benzopyran-1-one] |  |  | 50 |
| O=c1cc(-c2ccncc2)nc2c(NCCc3ccccc3)cccn12 [KN316, 9-(2-phenethyl)amino-2-(4-pyridinyl)-4H-Pyrido[1,2-a]pyrimidin-4-one] |  | 1000 | 1000 |
| Cc1cc(CNc2ccccc2)c2oc(-c3ccncc3)cc(=O)c2c1 [KN312, 6-methyl-8-phenylaminomethyl-2-(4-pyridinyl)-4H-benzopyran-1-one] |  |  | 50 |
| O=c1cc(-c2ccncc2)oc2c(Nc3ccccc3)cccc12 [KN341] | 5000 | 50 | 500 |
| Cc1cc(C(C)Nc2ccccc2)c2oc(-c3cc(C)nc(Cl)c3)cc(=O)c2c1 (stereo not drawn) [KN340, 8-1-(phenylamino)ethyl-6-methyl-2-(2-chloro-6-methyl-4-pyridinyl)-4H-1-benzopyran-4-one] | > 10000 | > 10000 |  |
